Like-named read-outs stand apart in the source and are kept apart here.
Columns and labels:
[1] = biological target: human dOR (Homo sapiens (Human), UniProt P41143); test: cell-based; settings: dOR cAMP Agonist Assay EC50, CHO Tag-lite human dOR stable cell line; forskolin
[2] = biological target: human mOR (Homo sapiens (Human), UniProt P35372); test: cell-based
[3] = CHO Tag-lite human mOR stable cell line, forskolin 4 μM and DAMGO at EC90, read-out: mOR cAMP Antagonist Assay IC50

Sequence of human mOR (P35372 whole entry): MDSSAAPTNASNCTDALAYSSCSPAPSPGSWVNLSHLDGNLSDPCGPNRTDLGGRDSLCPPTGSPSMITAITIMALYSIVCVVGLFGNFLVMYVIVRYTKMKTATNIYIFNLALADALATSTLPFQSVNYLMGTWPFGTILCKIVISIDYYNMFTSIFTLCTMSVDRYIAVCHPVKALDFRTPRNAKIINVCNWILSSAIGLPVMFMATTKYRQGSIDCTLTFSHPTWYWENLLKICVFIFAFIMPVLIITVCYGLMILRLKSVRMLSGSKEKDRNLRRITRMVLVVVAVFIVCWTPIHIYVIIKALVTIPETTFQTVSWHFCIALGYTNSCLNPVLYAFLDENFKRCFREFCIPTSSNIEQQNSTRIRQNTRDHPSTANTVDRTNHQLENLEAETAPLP
Sequence of human dOR (P41143 whole entry): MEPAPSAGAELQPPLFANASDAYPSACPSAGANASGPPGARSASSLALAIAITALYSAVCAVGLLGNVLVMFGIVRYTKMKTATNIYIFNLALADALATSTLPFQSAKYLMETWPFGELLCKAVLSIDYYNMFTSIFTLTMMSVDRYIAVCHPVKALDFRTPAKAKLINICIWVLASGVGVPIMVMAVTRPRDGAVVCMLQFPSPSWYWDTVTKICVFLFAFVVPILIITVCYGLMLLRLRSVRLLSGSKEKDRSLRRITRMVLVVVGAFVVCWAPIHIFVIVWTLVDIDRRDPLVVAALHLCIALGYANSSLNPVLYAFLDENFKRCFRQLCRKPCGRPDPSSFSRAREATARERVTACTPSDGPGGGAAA

Cc1cc(C(N)=O)cc(C)c1C[C@@H](CNC(=O)C[C@H](CC(C)C)c1ccccc1)N(C)C [Compound 9, 4-[(2S)-2-(dimethylamino)-3-[(3S)-5-methyl-3-phenylhexanamido]propyl]-3,5-dimethylbenzamide]
EC50 [1]: > 3000 nM | IC50 [2]: < 300 nM

Cc1cc(C(N)=O)cc(C)c1C[C@@H](CNC(=O)C[C@H](c1ccccc1)C(C)(C)C)N(C)C [Compound 13, 4-[(2S)-3-[(3S)-4,4-dimethyl-3-phenylpentanamido]-2-(dimethylamino)propyl]-3,5-dimethylbenzamide]
EC50 [1]: > 3000 nM | IC50 [2]: < 300 nM

CC(C)[C@@H](CC(=O)NC[C@H](Cc1ccc(C(N)=O)cc1Cl)N(C)C)c1ccccc1 [Compound 40, 3-chloro-4-((S)-2-(dimethylamino)-3-((R)-4-methyl-3-phenylpentanamido)propyl)benzamide]
EC50 [1]: < 300 nM | IC50 [2]: > 3000 nM

CC(C)[C@@H](CC(=O)NC[C@H](Cc1ccc(C(N)=O)cc1)N(C)C)c1ccccc1 [Compound 92, 4-((S)-2-(dimethylamino)-3-((R)-4-methyl-3-phenylpentanamido)propyl)benzamide]
EC50 [1]: < 300 nM | IC50 [2]: < 300 nM

CN(C)[C@H](CNC(=O)C[C@@H](c1ccccc1)C(C)(C)C)Cc1ccc(C(N)=O)cc1 [Compound 93, 4-[(2S)-3-[(3R)-4,4-dimethyl-3-phenylpentanamido]-2-(dimethylamino)propyl]benzamide]
EC50 [1]: < 300 nM | IC50 [2]: < 300 nM

CC(C)[C@H](CC(=O)NC[C@H](Cc1ccc(C(N)=O)cc1)N(C)C)c1ccccc1 [Compound 94, 4-[(2S)-2-(dimethylamino)-3-[(3S)-4-methyl-3-phenylpentanamido]propyl]benzamide]
EC50 [1]: < 300 nM | IC50 [2]: < 300 nM

CN(C)[C@H](CNC(=O)C[C@@H](c1ccccc1)C(C)(C)C)Cc1ccc(C(N)=O)cc1 [Compound 95, 4-((S)-3-((R)-4,4-dimethyl-3-phenylpentanamido)-2-(dimethylamino)propyl)benzamide]
EC50 [1]: > 3000 nM

CN(C)[C@H](CNC(=O)C[C@H](c1ccccc1)C(C)(C)C)Cc1ccc(C(=O)NCC(F)(F)F)c(F)c1 [Compound 101, 4-((S)-3-((S)-4,4-dimethyl-3-phenylpentanamido)-2-(dimethylamino)propyl)-2-fluoro-N-(2,2,2-trifluoroethyl)benzamide]
EC50 [1]: 300 to 3000 nM | IC50 [2, 3]: < 300 nM

CNC(=O)c1cc(F)c(C[C@@H](CNC(=O)C[C@H](c2ccccc2)C(C)(C)C)N(C)C)cc1F [Compound 104, 4-((S)-3-((S)-4,4-dimethyl-3-phenylpentanamido)-2-(dimethylamino)propyl)-2,5-difluoro-N-methylbenzamide]
EC50 [1]: 300 to 3000 nM | IC50 [2]: < 300 nM

CNC(=O)c1cc(C)c(C[C@@H](CNC(=O)C[C@@H](c2ccccc2)C(C)(C)C)N(C)C)cc1F [Compound 146, 4-((S)-3-((R)-4,4-dimethyl-3-phenylpentanamido)-2-(dimethylamino)propyl)-2-fluoro-N,5-dimethylbenzamide]
EC50 [1]: > 3000 nM | IC50 [2]: < 300 nM

CNC(=O)c1ccc(C[C@@H](CNC(=O)C[C@@H](CC(C)C)c2ccccc2)N(C)C)cc1Cl [Compound 147, 2-chloro-4-((S)-2-(dimethylamino)-3-((R)-5-methyl-3-phenylhexanamido)propyl)-N-methylbenzamide]
EC50 [1]: < 300 nM | IC50 [2]: < 300 nM

CNC(=O)c1ccc(C[C@@H](CNC(=O)C[C@H](c2ccccc2)C(C)C)N(C)C)cc1Cl [Compound 148, 2-chloro-4-((S)-2-(dimethylamino)-3-((S)-4-methyl-3-phenylpentanamido)propyl)-N-methylbenzamide]
EC50 [1]: 300 to 3000 nM | IC50 [2]: 300 to 3000 nM

CNC(=O)c1ccc(C[C@@H](CNC(=O)C[C@H](c2ccccc2)C(C)(C)C)N(C)C)cc1Cl [Compound 150, 2-chloro-4-((S)-3-((S)-4,4-dimethyl-3-phenylpentanamido)-2-(dimethylamino)propyl)-N-methylbenzamide]
EC50 [1]: > 3000 nM | IC50 [2]: < 300 nM

CNC(=O)c1ccc(C[C@@H](CNC(=O)C[C@@H](C)c2ccc(Cl)cc2)N(C)C)cc1F [Compound 155, 4-((S)-3-((R)-3-(4-chlorophenyl)butanamido)-2-(dimethylamino)propyl)-2-fluoro-N-methylbenzamide]
EC50 [1]: < 300 nM | IC50 [2, 3]: < 300 nM

CNC(=O)c1ccc(C[C@@H](CNC(=O)C[C@H](C)c2ccc(Cl)cc2)N(C)C)cc1F [Compound 156, 4-((S)-3-((S)-3-(4-chlorophenyl)butanamido)-2-(dimethylamino)propyl)-2-fluoro-N-methylbenzamide]
EC50 [1]: 300 to 3000 nM | IC50 [2, 3]: < 300 nM

CNC(=O)c1ccc(C[C@@H](CNC(=O)C[C@H](c2ccccc2)C(C)(C)C)N2CCCC2)cc1F [Compound 157, 4-((S)-3-((S)-4,4-dimethyl-3-phenylpentanamido)-2-(pyrrolidin-1-yl)propyl)-2-fluoro-N-methylbenzamide]
EC50 [1]: > 3000 nM | IC50 [2]: < 300 nM

CNC(=O)c1ccc(C[C@@H](CNC(=O)C[C@H](c2ccccc2)C(C)(C)C)N(C)C)cc1F [Compound 158, 4-((S)-3-((S)-4,4-dimethyl-3-phenylpentanamido)-2-(dimethylamino)propyl)-2-fluoro-N-methylbenzamide]
EC50 [1]: > 3000 nM | IC50 [2]: < 300 nM

CNC(=O)c1ccc(C[C@@H](CNC(=O)C[C@@H](c2ccccc2)C(C)(C)C)N(C)C)cc1F [Compound 159, 4-((S)-3-((R)-4,4-dimethyl-3-phenylpentanamido)-2-(dimethylamino)propyl)-2-fluoro-N-methylbenzamide]
EC50 [1]: 300 to 3000 nM | IC50 [2]: < 300 nM

CNC(=O)c1ccc(C[C@@H](CNC(=O)C[C@@H](CC(C)C)c2ccccc2)N(C)C)cc1F [Compound 160, 4-((S)-2-(dimethylamino)-3-((R)-5-methyl-3-phenylhexanamido)propyl)-2-fluoro-N-methylbenzamide]
EC50 [1]: < 300 nM | IC50 [2]: < 300 nM

CNC(=O)c1ccc(C[C@@H](CNC(=O)C[C@@H](c2ccccc2)C(C)C)N(C)C)cc1F [Compound 162, 4-((S)-2-(dimethylamino)-3-((R)-4-methyl-3-phenylpentanamido)propyl)-2-fluoro-N-methylbenzamide]
EC50 [1]: 300 to 3000 nM | IC50 [2]: < 300 nM

CNC(=O)c1ccc(C[C@@H](CNC(=O)C[C@H](C)c2ccccn2)N(C)C)cc1F [Compound 163, 4-((S)-2-(dimethylamino)-3-((S)-3-(pyridin-2-yl)butanamido)propyl)-2-fluoro-N-methylbenzamide]
EC50 [1]: > 3000 nM | IC50 [2]: < 300 nM

CNC(=O)c1ccc2c(c1)CN(C)[C@H](CNC(=O)C[C@H](c1ccccc1)C(C)(C)C)C2 [Compound 168, (S)-3-(((S)-4,4-dimethyl-3-phenylpentanamido)methyl)-N,2-dimethyl-1,2,3,4-tetrahydroisoquinoline-7-carboxamide]
EC50 [1]: > 3000 nM | IC50 [2]: 300 to 3000 nM

CC(C)C[C@@H](CC(=O)NC[C@H](Cc1ccc2[nH]c(=O)oc2c1)N(C)C)c1ccccc1 [Compound 172, (3S)-N-[(2S)-2-(dimethylamino)-3-(2-oxo-2,3-dihydro-1,3-benzoxazol-6-yl)propyl]-5-methyl-3-phenylhexanamide]
EC50 [1]: < 300 nM | IC50 [2]: < 300 nM

CC(C)[C@@H](CC(=O)NC[C@H](Cc1ccc2[nH]c(=O)oc2c1)N(C)C)c1ccccc1 [Compound 173, (R)-N-((S)-2-(dimethylamino)-3-(2-oxo-2,3-dihydrobenzo[d]oxazol-6-yl)propyl)-4-methyl-3-phenylpentanamide]
EC50 [1]: < 300 nM | IC50 [2]: < 300 nM

CCCC[C@@H](CC(=O)NC[C@H](Cc1ccc2[nH]c(=O)oc2c1)N(C)C)c1ccccc1 [Compound 174]
EC50 [1]: < 300 nM | IC50 [2]: < 300 nM

CN(C)[C@H](CNC(=O)C[C@H](c1ccccc1)C1CC1)Cc1ccc2[nH]c(=O)oc2c1 [Compound 177, (S)-3-cyclopropyl-N-((S)-2-(dimethylamino)-3-(2-oxo-2,3-dihydrobenzo[d]oxazol-6-yl)propyl)-3-phenylpropanamide]
EC50 [1]: 300 to 3000 nM | IC50 [2]: < 300 nM

CN(C)[C@H](CNC(=O)C[C@@H](c1ccccc1)C1CC1)Cc1ccc2[nH]c(=O)oc2c1 [Compound 178, (R)-3-cyclopropyl-N-((S)-2-(dimethylamino)-3-(2-oxo-2,3-dihydrobenzo[d]oxazol-6-yl)propyl)-3-phenylpropanamide]
EC50 [1]: 300 to 3000 nM | IC50 [2]: < 300 nM

CC(C)[C@@H](CC(=O)NC[C@H](Cc1ccc2c(c1)CC(=O)N2)N(C)C)c1ccccc1 [Compound 182, (R)-N-((S)-2-(dimethylamino)-3-(2-oxoindolin-5-yl)propyl)-4-methyl-3-phenylpentanamide]
EC50 [1]: > 3000 nM | IC50 [2, 3]: > 3000 nM

CC(C)C[C@@H](CC(=O)NC[C@H](Cc1ccc2c(c1)CC(=O)N2)N(C)C)c1ccccc1 [Compound 183, (S)-N-((S)-2-(dimethylamino)-3-(2-oxoindolin-5-yl)propyl)-5-methyl-3-phenylhexanamide]
EC50 [1]: > 3000 nM | IC50 [2]: < 300 nM

CN(C)[C@H](CNC(=O)C[C@@H](c1ccccc1)C1CC1)Cc1ccc2c(c1)CC(=O)N2 [Compound 186, (R)-3-cyclopropyl-N-((S)-2-(dimethylamino)-3-(2-oxoindolin-5-yl)propyl)-3-phenylpropanamide]
EC50 [1]: 300 to 3000 nM | IC50 [2]: < 300 nM

Cc1cc([C@@H](CC(=O)NC[C@H](Cc2ccc(O)cc2)N(C)C)C2(C(F)(F)F)CC2)cs1 [Compound 322, (S)-N-((S)-2-(dimethylamino)-3-(4-hydroxyphenyl)propyl)-3-(5-methylthiophen-3-yl)-3-(1-(trifluoromethyl)cyclopropyl)propanamide]
IC50 [2]: < 300 nM

Cc1cnc([C@@H](CC(=O)NC[C@H](Cc2ccc(-c3nnc[nH]3)cc2)N(C)C)C2(C(F)(F)F)CC2)s1 [Compound 325, (S)-N-((S)-3-(4-(4H-1,2,4-triazol-3-yl)phenyl)-2-(dimethylamino)propyl)-3-(5-methylthiazol-2-yl)-3-(1-(trifluoromethyl)cyclopropyl) propanamide]
IC50 [2, 3]: 300 to 3000 nM

— patent publication US11634396B2 (priority 2021, dated 2023)
